Measured values: patent publication US10071095B2, “1,2,4-triazolo [4,3-A] pyridine derivatives and their use for the treatment of neurological and psychiatric disorders” (JANSSEN PHARMACEUTICALS, INC., priority 2009, dated 2018)
Read-outs that look alike come from different tables or passages of the source.

Experiments:
Assay type in all cases: in vivo
[1] = test system: REM sleep in rats; test: Sleep wake electroencephalography (SW-EEG) in rats
Description: Sleep Wake Electroencephalography (SW-EEG) in Rats
SW-EEG analyses are a highly sensitive read-out of a compound's central functional activity that may provide additional insight in the potential therapeutic application (i.e. via drug classification fingerprinting). […] Internal efforts have confirmed that this effect is mGlu2 receptor-mediated, i.e. is absent in mGlu2 KO mice. Sleep abnormalities are often associated with CNS disorders; as such, the potential use of mGlu2 modulators could also have benefit in the treatment of CNS disorders in which (REM) sleep aberrations are manifested. More specifically, the combination of a persistent reduction in REM occurrence and an increase in REM latency is one of the key features of the typical SW architecture fingerprint of most clinically active antidepressants.
We investigated the effects of oral administration of compounds according to the invention on SW organization in rats. The mGlu2/3 receptor agonists LY404039 and LY354740 were also evaluated to allow comparison.

[2] = test system: memantine-induced 2DG uptake in mouse brain (hippocampus); test: Reversal of memantine-induced brain activation ([14C]2DG uptake) in mice
Procedure: Reversal of Memantine-Induced Brain Activation in Mice
NMDA receptor hypofunction is hypothesized to be involved in schizophrenia.
Autoradiographic assessment of radiolabeled [^14C]-2-deoxyglucose ([^14C]2DG) uptake is commonly used to investigate brain activation. In humans, cerebral blood flow is increased in specific brain regions after administration of a subanaesthetic dose of ketamine.
Male mice (C57BL/6, weight 24-28 g, fasted overnight; n=10 animals per group) were treated with vehicle or test compound (s.c.) in randomized order (t=0 min). Memantine (20 mg/kg, s.c.) was injected 30 min later (t=30 min). At t=45 min, [^14C]2DG (0.16 μCi/g) was administered intraperitoneally (i.p.), followed by a 45 min uptake period. Animals were decapitated (t=90 min), plasma glucose levels measured, the brain removed, rapidly frozen and stored at −20° C. until sectioned. Brain sections were exposed together to a precalibrated [^14C]standard on film, which was developed after four days of exposure. Local tissue [^14C]concentration (nCi/mg tissue equivalent—TEQ—) in each region of interest was determined.
Data was analyzed statistically using a two-way ANOVA analysis followed by post-hoc tests (memantine response versus reversal by the compound). The results are shown in table 5 below, expressed as lowest active dose (L.A.D.) required to exert a statistically significant (p<0.05) reduction of 2DG uptake in the hippocampus compared to memantine response.

[3] = test system: conditioned avoidance response in male Wiga Wistar rats; test: Conditioned avoidance response (CAR) test in rats; details: for ED50: Rattus norvegicus, po, read-out: ED50 (mg/kg) CAR-Inh.
Description: Conditioned Avoidance Response (CAR) Test
The apparatus consisted of an inner box surrounded by an outer box. The inner box was composed of four walls of transparent, synthetic material (length×width×height: 30×30×30 cm), an open top, and a grid floor made of 15 pairs of iron bars (2 mm diameter; 6 mm inter-bar distance). Odd and even bars were connected with a source of alternative current (1.0 mA; Coulbourn Instruments Solid State Shocker/Distributor), which could be interrupted by a switch. The outer box was composed of the same material (length×width×height: 40×40×36 cm), also with an open top, with a distance of 5 cm between the inner and outer box on all sides. To decrease the amount of environmental stimuli, three walls of the outer box were made non-transparent. The front wall was left transparent to allow the necessary inspection of the animal during the test. The upper edge of the outer and inner box served as a target for the rats on which to jump with fore- and hind-paws, respectively.
Avoidance Conditioning and Selection of Animals
From their arrival in the laboratory on the experimental day, male Wiga Wistar rats (230±30 g) were housed in individual cages provided with bedding material.
Latency to avoidance was recorded. The median avoidance response obtained over the three experimental sessions for each rat were used for further calculations.

[4] = test system: PCP-induced hyperlocomotion in male NMRI mice; test: Phencyclidine (PCP)-induced hyperlocomotion in mice (video tracking)
Procedure: (§1) Motor Activity (Video Tracking)
(§2) Apparatus and General Procedure
(§3) On the day of experiments, the mice were brought into the procedural room. They were housed individually and allowed to acclimate for at least a half hour prior to testing. Although the studies were conducted during the light cycle (from 8:00 to 16:00 h), the procedure room was only sparsely lit (3 to 30 LUX) to provide better contrast for the video tracking. Local lighting was used for the injection procedures. During each trial, an individual mouse was placed in an open field arena (grey PVC cylinder with a height of 40 cm and a diameter of 22.5 cm). Each arena was placed on an infrared LED (8×8 LEDs)-lit box (white PVC squared box; 40×40 cm^2; height 12.5 cm). Each mouse was placed in the center of the arena and allowed to explore freely for 30 min. After each trial, the arena was cleaned with a wet and subsequently with a dry cleaning cloth. An infrared sensitive tube camera and a white light source (in arena: 4-7 LUX) were mounted to the ceiling above the observation chamber to record and input activity to a computer. Animal behavior was recorded and analyzed using the Noldus Ethovision XT Video Tracking System (Version 3.1; Noldus, Wageningen, The Netherlands). The total distance traveled (cm) was calculated. Data were then exported to data management systems for further analysis and reporting.
Phencyclidine (PCP)-Induced Hyperlocomotion in Mice
Test compound or solvent was administered at a pre-defined time before measurement (standard: 30 min) to male NMRI mice that were challenged with phencyclidine (PCP; 5 mg/kg, s.c.) 30 min before measurement. Activity was measured for a period of 30 min.

[5] = test system: d-amphetamine-induced hyperlocomotion in male NMRI mice; test: d-Amphetamine-induced hyperlocomotion in mice (video tracking)
Procedure: as §1, §2
as §3, with “An infrared sensitive tube camera and a white light source (in arena: 4-7 LUX) were mounted to the ceiling above the observation chamber to record and input activity to a computer.” left out, “Data were then exported to data management systems for further analysis and reporting.” left out
Test compound or solvent was administered at a pre-defined time before measurement (standard: 30 min) to male NMRI mice that were challenged with d-amphetamine (5 mg/kg, s.c.) 30 min before measurement. Activity was measured for a period of 30 min.

N[C@@]1(C(=O)O)CC[C@H]2[C@H](C(=O)O)[C@H]21 [LY354740]
lowest active dose, decrease in REM sleep ([1]; acute dosing, s.c.): 3 mg/kg
effect of subchronic treatment on REM sleep effect (in words) ([1]; once daily dosing for 7 days, 1, 3, 10 mg/kg, s.c.): led to tolerance

FC(F)(F)c1c(N2CCC(c3ccccc3)CC2)ccn2c(CC3CC3)nnc12 [compound 43, 3-(Cyclopropylmethyl)-7-(4-phenyl-1-piperidinyl)-8-(trifluoromethyl)-1,2,4-triazolo[4,3-a]pyridine]
L.A.D. (lowest active dose for significant reduction of 2DG uptake in hippocampus vs memantine response) ([2]; mice C57BL/6, s.c., memantine 20 mg/kg s.c., p<0.05): ≤2.5 mg/kg, s.c.
inhibition of the conditioned avoidance response in rats (in words) [3]: inhibited
ED50 ([3]; compound administered orally (*); a)/b) = estimated ED50 values): 16.3 mg/kg
ED50 ([3]; not marked * (not oral; injection per method); b) = estimated ED50 values (n = 3 per dose)): 2.35 mg/kg
effect of subchronic treatment on REM sleep effect (in words) ([1]; once daily dosing for 7 days, 3, 10 and 30 mg/kg, p.o.): did not diminish the effects
ED50 ([4]; Mus musculus, read-out: Mice ED50 (mg/kg) PCP-Inh.): 5.4 mg/kg
inhibition of PCP-induced hyperlocomotion in mice (in words) ([4]; mice): inhibited
ED50 ([5]; Mus musculus, sc, male NMRI mice, s.c., d-amphetamine 5 mg/kg s.c., criterion total distance <5500 counts, read-out: ED50, inhibition of amphetamine-induced hyperlocomotion): 37 mg/kg
activity against d-amphetamine-induced hyperlocomotion in mice (in words) ([5]; mice): active

N[C@@]1(C(=O)O)CS(=O)(=O)[C@H]2[C@H](C(=O)O)[C@H]21 [LY404039, reference compound]
effect on memantine-induced brain glucose metabolism / 2DG uptake (in words) ([2]; mouse brain, reference drugs): inhibited
effect on REM sleep (in words) ([1]; 3 mg/kg, p.o.): affect REM sleep
